Reference: patent publication US20070128217A1 (priority 2003, published 2007)

Experiments:
[1] = system: control sera (pooled serum of ten healthy LUMC hospital workers; commercial negative donor pooled serum from the Dutch bloodbank); assay type: binding, human; parameters: Binding of Control serum LUMC to linear peptides / Binding of Control serum Blood-bank to linear peptides / Binding of Control serum LUMC to looped peptides / Binding of Control Serum Blood-Bank to Looped peptides / Binding of Control serum LUMC to linear peptides of the protein M of SARS-CoV Urbani / Binding of Control serum Blood-bank to linear peptides of the protein M of SARS-CoV Urbani / Binding of Control serum LUMC to looped peptides of the protein M of SARS-CoV Urbani / Binding of Control Serum Blood-Bank to Looped peptides of the protein M of SARS-CoV Urbani: unit not given here
[2] = system: rabbit serum obtained by immunizing a rabbit with the SARS-CoV strain Frankfurt 1; assay type: binding; parameters: Binding of a rabbit serum to linear peptides / Binding of a rabbit serum to looped peptides / Rabbit serum linear peptides / Rabbit serum looped peptides / Binding of a rabbit serum to linear peptides of protein N of SARS-CoV Urbani (Rabbit serum linear peptides) / Binding of a rabbit serum to looped/cyclic peptides of protein N of SARS-CoV Urbani (Rabbit serum looped peptides): unit not given here
[3] = system: antibodies in sera from SARS patients (sera 1a, 1b, 2, 6, 37, 62, London, SARS-yellow, SARS-green); assay type: binding, human; parameters: Binding of serum 6 to linear peptides of protein X1 of SARS-CoV Urbani / Binding of serum 37 to linear peptides of protein X1 of SARS-CoV Urbani / Binding of serum 6 to looped/cyclic peptide (PEPSCAN-ELISA) / Binding of serum 37 to looped/cyclic peptide (PEPSCAN-ELISA) / Binding of serum 37 to looped/cyclic peptides of protein X1 of SARS-CoV Urbani / Binding of serum 6 to linear peptides of protein X2 / Binding of serum 37 to linear peptides of protein X2 / Binding of serum 37 to looped/cyclic peptides of protein X2 of SARS-CoV Urbani / Binding of serum 6 to linear peptides of protein M of SARS-CoV Urbani / Binding of serum 37 to linear peptides of protein M of SARS-CoV Urbani / Binding of serum 6 to looped/cyclic peptides of protein M of SARS-CoV Urbani / Binding of serum 37 to looped/cyclic peptides of protein M of SARS-CoV Urbani / Binding of serum 6 to linear peptides of protein X3 of SARS-CoV Urbani / Binding of serum 37 to linear peptides of protein X3 of SARS-CoV Urbani / Binding of serum 37 to looped/cyclic peptides of protein X3 of SARS-CoV Urbani / Binding of serum 6 to linear peptides of protein X4 of SARS-CoV Urbani / Binding of serum 37 to linear peptides of protein X4 of SARS-CoV Urbani / Binding of serum 37 to looped/cyclic peptides of protein X4 of SARS-CoV Urbani / Binding of serum 6 to linear peptides of protein X5 of SARS-CoV Urbani / Binding of serum 37 to linear peptides of protein X5 of SARS-CoV Urbani / Binding of serum 37 to looped/cyclic peptides of protein X5 of SARS-CoV Urbani / Binding of serum 6 to linear peptides of protein N of SARS-CoV Urbani / Binding of serum 37 to linear peptides of protein N of SARS-CoV Urbani / Binding of serum 6 to linear peptide (PEPSCAN-ELISA) / Binding of serum 1a to looped/cyclic peptides of protein N of SARS-CoV Urbani / Binding of serum 1b to looped/cyclic peptides of protein N of SARS-CoV Urbani / Binding of serum 2 to looped/cyclic peptides of protein N of SARS-CoV Urbani / Binding of serum 6 to looped/cyclic peptides of protein N of SARS-CoV Urbani / Binding of serum 37 to looped/cyclic peptides of protein N of SARS-CoV Urbani / Binding of serum 62 to looped/cyclic peptides of protein N of SARS-CoV Urbani / Binding of serum London to looped/cyclic peptides of protein N of SARS-CoV Urbani / Binding of serum SARS-green to looped/cyclic peptides of protein N of SARS-CoV Urbani: unit not given here

ALYKGFQFICNLLLL was tested, and the “Binding of Control Serum Blood-Bank to Looped peptides” value [1] was 0.5, the “Binding of Control serum Blood-bank to linear peptides” value [1] was 0.6 and the “Binding of Control serum LUMC to linear peptides” value [1] was 0.5. For the same sequence, the “Binding of Control serum LUMC to looped peptides” value [1] was 0.5, the “Binding of a rabbit serum to linear peptides” value [2] was 0.6 and the “Binding of a rabbit serum to looped peptides” value [2] was 0.4. The “Binding of serum 1a to linear peptides of protein X1 of SARS-CoV Urbani” value [3] was 0.6, the “Binding of serum 1a to looped/cyclic peptide (PEPSCAN-ELISA)” value [3] was 0.4 and the “Binding of serum 1b to linear peptides of protein X1 of SARS-CoV Urbani” value [3] was 0.5. For the same sequence, the “Binding of serum 1b to looped/cyclic peptide (PEPSCAN-ELISA)” value [3] was 0.3, the “Binding of serum 2 to linear peptides of protein X1 of SARS-CoV Urbani” value [3] was 0.4 and the “Binding of serum 2 to looped/cyclic peptide (PEPSCAN-ELISA)” value [3] was 0.3. The “Binding of serum 6 to linear peptides of protein X1 of SARS-CoV Urbani” value [3] was 0.4, the “Binding of serum 6 to looped/cyclic peptide (PEPSCAN-ELISA)” value [3] was 1.3 and the “Binding of serum 37 to linear peptides of protein X1 of SARS-CoV Urbani” value [3] was 0.5. For the same sequence, the “Binding of serum 37 to looped/cyclic peptide (PEPSCAN-ELISA)” value [3] was 0.4, the “Binding of serum 62 to linear peptides of protein X1 of SARS-CoV Urbani” value [3] was 0.5 and the “Binding of serum 62 to looped/cyclic peptide (PEPSCAN-ELISA)” value [3] was 0.4. For the same sequence, the “Binding of serum London to linear peptides of protein X1 of SARS-CoV Urbani” value [3] was 0.2, the “Binding of serum London to looped/cyclic peptide (PEPSCAN-ELISA)” value [3] was 1.4 and the “Binding of serum SARS-green to linear peptides of protein X1 of SARS-CoV Urbani” value [3] was 0.2. For the same sequence, the “Binding of serum SARS-green to looped/cyclic peptide (PEPSCAN-ELISA)” value [3] was 0.2, the “Binding of serum SARS-yellow to linear peptides of protein X1 of SARS-CoV Urbani” value [3] was 0.5 and the “Binding of serum SARS-yellow to looped/cyclic peptide (PEPSCAN-ELISA)” value [3] was 0.4.
ARSVSPKLFIRQEEV was tested, and the “Binding of Control Serum Blood-Bank to Looped peptides” value [1] was 0.7, the “Binding of Control serum Blood-bank to linear peptides” value [1] was 0.7 and the “Binding of Control serum LUMC to linear peptides” value [1] was 0.6. The “Binding of Control serum LUMC to looped peptides” value [1] was 0.7, the “Rabbit serum linear peptides” value [2] was 0.3 and the “Rabbit serum looped peptides” value [2] was 0.2. For the same sequence, the “Binding of serum 1a to linear peptides of protein X4 of SARS-CoV Urbani” value [3] was 0.7, the “Binding of serum 1a to looped/cyclic peptides of protein X4 of SARS-CoV Urbani” value [3] was 0.8 and the “Binding of serum 1b to linear peptides of protein X4 of SARS-CoV Urbani” value [3] was 0.6. For the same sequence, the “Binding of serum 1b to looped/cyclic peptides of protein X4 of SARS-CoV Urbani” value [3] was 0.5, the “Binding of serum 2 to linear peptides of protein X4 of SARS-CoV Urbani” value [3] was 0.5 and the “Binding of serum 2 to looped/cyclic peptides of protein X4 of SARS-CoV Urbani” value [3] was 0.7. For the same sequence, the “Binding of serum 6 to linear peptides of protein X4 of SARS-CoV Urbani” value [3] was 0.6, the “Binding of serum 6 to looped/cyclic peptides of protein X4 of SARS-CoV Urbani” value [3] was 0.5 and the “Binding of serum 37 to linear peptides of protein X4 of SARS-CoV Urbani” value [3] was 0.7. The “Binding of serum 37 to looped/cyclic peptides of protein X4 of SARS-CoV Urbani” value [3] was 0.7, the “Binding of serum 62 to linear peptides of protein X4 of SARS-CoV Urbani” value [3] was 0.7 and the “Binding of serum 62 to looped/cyclic peptides of protein X4 of SARS-CoV Urbani” value [3] was 0.6. For the same sequence, the “Binding of serum London to linear peptides of protein X4 of SARS-CoV Urbani” value [3] was 0.7, the “Binding of serum London to looped/cyclic peptides of protein X4 of SARS-CoV Urbani” value [3] was 0.3 and the “Binding of serum SARS-green to linear peptides of protein X4 of SARS-CoV Urbani” value [3] was 0.6. The “Binding of serum SARS-green to looped/cyclic peptides of protein X4 of SARS-CoV Urbani” value [3] was 0.6, the “Binding of serum SARS-yellow to linear peptides of protein X4 of SARS-CoV Urbani” value [3] was 0.1 and the “Binding of serum SARS-yellow to looped/cyclic peptides of protein X4 of SARS-CoV Urbani” value [3] was 0.5.
ARTRSMWSFNPETNI was tested, and the “Binding of Control Serum Blood-Bank to Looped peptides of the protein M of SARS-CoV Urbani” value [1] was 0.6, the “Binding of Control serum Blood-bank to linear peptides of the protein M of SARS-CoV Urbani” value [1] was 0.7 and the “Binding of Control serum LUMC to linear peptides of the protein M of SARS-CoV Urbani” value [1] was 0.9. The “Binding of Control serum LUMC to looped peptides of the protein M of SARS-CoV Urbani” value [1] was 0.7, the “Rabbit serum linear peptides” value [2] was 0.2 and the “Rabbit serum looped peptides” value [2] was 0.3. For the same sequence, the “Binding of serum 1a to linear peptides of protein M of SARS-CoV Urbani” value [3] was 0.9, the “Binding of serum 1a to looped/cyclic peptides of protein M of SARS-CoV Urbani” value [3] was 0.7 and the “Binding of serum 1b to linear peptides of protein M of SARS-CoV Urbani” value [3] was 0.8. The “Binding of serum 1b to looped/cyclic peptides of protein M of SARS-CoV Urbani” value [3] was 0.1, the “Binding of serum 2 to linear peptides of protein M of SARS-CoV Urbani” value [3] was 0.6 and the “Binding of serum 2 to looped/cyclic peptides of protein M of SARS-CoV Urbani” value [3] was 0.9. The “Binding of serum 6 to linear peptides of protein M of SARS-CoV Urbani” value [3] was 0.7, the “Binding of serum 6 to looped/cyclic peptides of protein M of SARS-CoV Urbani” value [3] was 0.6 and the “Binding of serum 37 to linear peptides of protein M of SARS-CoV Urbani” value [3] was 0.6. The “Binding of serum 37 to looped/cyclic peptides of protein M of SARS-CoV Urbani” value [3] was 0.8, the “Binding of serum 62 to linear peptides of protein M of SARS-CoV Urbani” value [3] was 0.5 and the “Binding of serum 62 to looped/cyclic peptides of protein M of SARS-CoV Urbani” value [3] was 0.8. The “Binding of serum London to linear peptides of protein M of SARS-CoV Urbani” value [3] was 0.4, the “Binding of serum London to looped/cyclic peptides of protein M of SARS-CoV Urbani” value [3] was 0.2 and the “Binding of serum SARS-green to linear peptides of protein M of SARS-CoV Urbani” value [3] was 0.7. The “Binding of serum SARS-green to looped/cyclic peptides of protein M of SARS-CoV Urbani” value [3] was 0.1, the “Binding of serum SARS-yellow to linear peptides of protein M of SARS-CoV Urbani” value [3] was 0.3 and the “Binding of serum SARS-yellow to looped/cyclic peptides of protein M of SARS-CoV Urbani” value [3] was 0.7.
For ATATIPLQASLPFGW, the “Binding of Control Serum Blood-Bank to Looped peptides” value [1] was 0.8, the “Binding of Control serum Blood-bank to linear peptides” value [1] was 0.9 and the “Binding of Control serum LUMC to linear peptides” value [1] was 0.7. For the same sequence, the “Binding of Control serum LUMC to looped peptides” value [1] was 0.7, the “Binding of a rabbit serum to linear peptides” value [2] was 0.1 and the “Binding of a rabbit serum to looped peptides” value [2] was 0.6. For the same sequence, the “Binding of serum 1a to linear peptides of protein X1 of SARS-CoV Urbani” value [3] was 0.9, the “Binding of serum 1a to looped/cyclic peptide (PEPSCAN-ELISA)” value [3] was 0.6 and the “Binding of serum 1b to linear peptides of protein X1 of SARS-CoV Urbani” value [3] was 0.7. For the same sequence, the “Binding of serum 1b to looped/cyclic peptide (PEPSCAN-ELISA)” value [3] was 0.5, the “Binding of serum 2 to linear peptides of protein X1 of SARS-CoV Urbani” value [3] was 0.7 and the “Binding of serum 2 to looped/cyclic peptide (PEPSCAN-ELISA)” value [3] was 0.5. For the same sequence, the “Binding of serum 6 to linear peptides of protein X1 of SARS-CoV Urbani” value [3] was 0.7, the “Binding of serum 6 to looped/cyclic peptide (PEPSCAN-ELISA)” value [3] was 0.5 and the “Binding of serum 37 to linear peptides of protein X1 of SARS-CoV Urbani” value [3] was 0.7. The “Binding of serum 37 to looped/cyclic peptide (PEPSCAN-ELISA)” value [3] was 0.7, the “Binding of serum 62 to linear peptides of protein X1 of SARS-CoV Urbani” value [3] was 0.8 and the “Binding of serum 62 to looped/cyclic peptide (PEPSCAN-ELISA)” value [3] was 0.7. For the same sequence, the “Binding of serum London to linear peptides of protein X1 of SARS-CoV Urbani” value [3] was 0.4, the “Binding of serum London to looped/cyclic peptide (PEPSCAN-ELISA)” value [3] was 0.3 and the “Binding of serum SARS-green to linear peptides of protein X1 of SARS-CoV Urbani” value [3] was 0.4. The “Binding of serum SARS-green to looped/cyclic peptide (PEPSCAN-ELISA)” value [3] was 0.3, the “Binding of serum SARS-yellow to linear peptides of protein X1 of SARS-CoV Urbani” value [3] was 0.5 and the “Binding of serum SARS-yellow to looped/cyclic peptide (PEPSCAN-ELISA)” value [3] was 0.4.
